ChEMBL document CHEMBL3856269, “Anti-inflammatory activity effect of 2-substituted-1,4,5,6-tetrahydrocyclopenta[b]pyrrole on TPA-induced skin inflammation in mice” (2016)
Calls of active or inactive are those of the source. The rule behind the calls is not given here.

Tests used:
Assay type in all cases: functional
Mus musculus [1] = test: Anti-inflammatory activity in TPA-induced Balb/c mouse ear edema model assessed as reduction in TPA-induced ear edema at 0.75 uM administered topically 6 mins prior to TPA administration measured after 6 hrs relative to control; set-up: scale not given: the % may be the effect or the level left
Mus musculus [2] = test: In vivo inhibition of IKK-mediated NF-kB activation in Balb/c mouse assessed as decrease in TPA-induced COX2 expression at 0.75 uM administered topically 6 mins prior to TPA administration measured after 6 hrs by immunohistochemical analysis
Mus musculus [3] = test: In vivo inhibition of IKK-mediated NF-kB activation in Balb/c mouse assessed as decrease in TPA-induced TNFalpha expression at 0.75 uM administered topically 6 mins prior to TPA administration measured after 6 hrs by immunohistochemical analysis
Mus musculus [4] = test: In vivo inhibition of IKK-mediated NF-kB activation in Balb/c mouse assessed as decrease in TPA-induced IL-1beta expression at 0.75 uM administered topically 6 mins prior to TPA administration measured after 6 hrs by immunohistochemical analysis
Mus musculus [5] = test: In vivo inhibition of IKK-mediated NF-kB activation in Balb/c mouse assessed as decrease in TPA-induced phospho-Ser536 p65 expression at 0.75 uM administered topically 6 mins prior to TPA administration measured after 6 hrs by immunohistochemical analysis
Mus musculus [6] = test: Anti-inflammatory activity in Balb/c mouse assessed as reduction in TPA-induced hyperkeratosis at 0.75 uM administered topically 6 mins prior to TPA administration measured after 6 hrs by hematoxylin and eosin staining based microscopic analysis
Mus musculus [7] = test: Anti-inflammatory activity in Balb/c mouse assessed as reduction in TPA-induced dense dermal leukocyte infiltration at 0.75 uM administered topically 6 mins prior to TPA administration measured after 6 hrs by hematoxylin and eosin staining based microscopic analysis
Mus musculus [8] = test: In vivo inhibition of IKK-mediated NF-kB activation in Balb/c mouse assessed as decrease in TPA-induced IL-6 expression at 0.75 uM administered topically 6 mins prior to TPA administration measured after 6 hrs by immunohistochemical analysis
Mus musculus [9] = test: In vivo inhibition of IKK-mediated NF-kB activation in Balb/c mouse assessed as decrease in TPA-induced p65 expression at 0.75 uM administered topically 6 mins prior to TPA administration measured after 6 hrs by immunohistochemical analysis
Mus musculus [10] = test: Anti-inflammatory activity in Balb/c mouse assessed as reduction in TPA-induced epidermal hyperplasia at 0.75 uM administered topically 6 mins prior to TPA administration measured after 6 hrs by hematoxylin and eosin staining based microscopic analysis
Mus musculus [11] = test: In vivo inhibition of IKK activation in Balb/c mouse at 0.75 uM administered topically 6 mins prior to TPA administration measured after 6 hrs by immunohistochemical analysis
Mus musculus [12] = test: In vivo inhibition of IKK-mediated NF-kB activation in Balb/c mouse assessed as decrease in TPA-induced phosphorylation of IKBalpha at Ser-32 residue at 0.75 uM administered topically 6 mins prior to TPA administration measured after 6 hrs by immunohistochemical analysis
Mus musculus [13] = test: Potency index, ratio of compound to celecoxib potency for reduction in TPA-induced ear edema in Balb/c mouse

SMILES | Activity (Mus musculus [1]) | also measured
c1ccc(-c2cc3c(n2-c2ccccc2)CC(c2ccccc2)C3)cc1 (configuration not stated) | 16.09% | 
c1ccc(-c2cc3c(n2-c2ccccc2)CCC3)cc1 | -0.93% | 
C#CCn1c(-c2ccccc2)cc2c1CCC2 | 8.77% | 
c1ccc(-c2cc3c(n2C2CC2)CCC3)cc1 | 20.88% | 
Cc1ccc(-c2cc3c(n2-c2ccccc2)CCC3)cc1 | 0.53% | 
CC(C)(C)c1cc2c(n1-c1ccccc1)CCC2 | -0.53% | 
Clc1ccccc1-n1c(-c2ccccc2)cc2c1CCC2 | -6.78% | 
c1ccc(Cn2c(-c3ccccc3)cc3c2CCC3)cc1 | 25.66% | 
Cc1ccc(-c2cc(C(F)(F)F)nn2-c2ccc(S(N)(=O)=O)cc2)cc1 [CELECOXIB] | 17.95% | inhibition (Mus musculus [2]): Active; inhibition (Mus musculus [3]): Active; inhibition (Mus musculus [4]): Active; inhibition (Mus musculus [5]): Active; Activity (Mus musculus [6]): Active; Activity (Mus musculus [7]): Active; inhibition (Mus musculus [8]): Active; inhibition (Mus musculus [9]): Active; Activity (Mus musculus [10]): Active
CCCn1c(-c2ccccc2)cc2c1CCC2 | 57.31% | inhibition (Mus musculus [11]): Active; inhibition (Mus musculus [2]): Active; inhibition (Mus musculus [3]): Active; inhibition (Mus musculus [4]): Active; inhibition (Mus musculus [5]): Active; Activity (Mus musculus [6]): Active; inhibition (Mus musculus [12]): Active; Activity (Mus musculus [7]): Active; inhibition (Mus musculus [8]): Active; inhibition (Mus musculus [9]): Active; Activity (Mus musculus [10]): Active; Ratio (Mus musculus [13]): 3.2
CCCCn1c(-c2ccccc2)cc2c1CCC2 | -9.17% | 
c1ccc(-c2cc3c(n2C2CCCCC2)CCC3)cc1 | 19.02% | 
O=[N+]([O-])c1ccc(-n2c(-c3ccccc3)cc3c2CCC3)cc1 | -12.9% | 
CC(C)(C)c1cc2c([nH]1)CCC2 | 9.71% | 
C#CCn1c(-c2ccc(C)cc2)cc2c1CCC2 | 4.92% | 
Clc1ccc(-n2c(-c3ccccc3)cc3c2CCC3)cc1 | 19.41% | 
COc1ccc(Cn2c(-c3ccc(C)cc3)cc3c2CCC3)cc1 | 7.71% | 
COc1ccc(-c2cc3c([nH]2)CCC3)cc1 | 17.55% | 
CCn1c(-c2ccccc2)cc2c1CCC2 | 13.56% | 
Brc1ccc(-n2c(-c3ccccc3)cc3c2CCC3)cc1 | 15.96% | 
COCCCn1c(-c2ccccc2)cc2c1CCC2 | 1.46% | 
COc1ccc(Cn2c(-c3ccccc3)cc3c2CCC3)cc1 | 2.93% | 
c1ccc(CCn2c(-c3ccccc3)cc3c2CCC3)cc1 | -1.86% | 
c1ccc(-c2cc3c([nH]2)CCC3)cc1 | 10.23% | 
c1ccc(CCCn2c(-c3ccccc3)cc3c2CCC3)cc1 | -13.56% | 
CC(C)Cn1c(-c2ccccc2)cc2c1CCC2 | 6.91% | 
